Data from ChEMBL document CHEMBL3046800, “Tricyclic cyanoguanidines: synthesis, site of action and insecticidal activity of a novel class of reversible acetylcholinesterase inhibitors” (2002).
Calls of active or inactive are those of the source. No cut-off for these calls is given here.

What was measured:
Nephotettix cincticeps = assay: Insecticidal activity against Nephotettix cincticeps (green rice leafhopper) infested in compound-pretreated rice seedling measured 6 days post-infestation; format: functional
Nilaparvata lugens = assay: Insecticidal activity against Nilaparvata lugens (brown planthopper) infested in compound-pretreated rice seedling measured 6 days post-infestation; format: functional
Peregrinus maidis = assay: Insecticidal activity against Peregrinus maidis (corn hopper) infested compound-pretreated corn seed measured 6 days post-infestation; format: functional
[1] = molecular target: Acetylcholinesterase (Leptinotarsa decemlineata) (UniProt Q27677); assay: Reversible inhibition of Diabrotica undecimpunctata (Southern corn rootworm) acetylcholinesterase using acetylcholine iodine as substrate at 10 uM incubated for 30 min prior to substrate addition by size exclusion chromatrography method
[2] = molecular target: Acetylcholinesterase (Leptinotarsa decemlineata) (UniProt Q27677); assay: Reversible inhibition of Diabrotica undecimpunctata (Southern corn rootworm) acetylcholinesterase using acetylcholine iodine as substrate at 2 uM measured up to 120 min by DTNB-based colorimetric analysis
[3] = molecular target: Ace-orthologous acetylcholinesterase (Nephotettix cincticeps) (UniProt Q9NJH6); assay: Reversible inhibition of Nephotettix cincticeps (green rice leafhopper) acetylcholinesterase using acetylcholine iodine as substrate at 2 uM measured up to 120 min by DTNB-based colorimetric analysis
[4] = molecular target: Acetylcholinesterase (Leptinotarsa decemlineata) (UniProt Q27677); assay: Inhibition of Diabrotica undecimpunctata (Southern corn rootworm) acetylcholinesterase using acetylcholine iodine as substrate at 300 nM measured after 30 min by DTNB-based colorimetric analysis
[5] = molecular target: Acetylcholinesterase (Leptinotarsa decemlineata) (UniProt Q27677); assay: Irreversible inhibition of Diabrotica undecimpunctata (Southern corn rootworm) acetylcholinesterase using acetylcholine iodine as substrate at 300 nM measured after 120 min by DTNB-based colorimetric analysis
[6] = molecular target: Acetylcholinesterase (Leptinotarsa decemlineata) (UniProt Q27677); assay: Irreversible inhibition of Diabrotica undecimpunctata (Southern corn rootworm) acetylcholinesterase using acetylcholine iodine as substrate assessed as activity remaining at 1 uM incubated for 30 min prior to substrate addition by size exclusion chromatrography method

Sequence of Acetylcholinesterase (Leptinotarsa decemlineata) (Q27677 whole entry): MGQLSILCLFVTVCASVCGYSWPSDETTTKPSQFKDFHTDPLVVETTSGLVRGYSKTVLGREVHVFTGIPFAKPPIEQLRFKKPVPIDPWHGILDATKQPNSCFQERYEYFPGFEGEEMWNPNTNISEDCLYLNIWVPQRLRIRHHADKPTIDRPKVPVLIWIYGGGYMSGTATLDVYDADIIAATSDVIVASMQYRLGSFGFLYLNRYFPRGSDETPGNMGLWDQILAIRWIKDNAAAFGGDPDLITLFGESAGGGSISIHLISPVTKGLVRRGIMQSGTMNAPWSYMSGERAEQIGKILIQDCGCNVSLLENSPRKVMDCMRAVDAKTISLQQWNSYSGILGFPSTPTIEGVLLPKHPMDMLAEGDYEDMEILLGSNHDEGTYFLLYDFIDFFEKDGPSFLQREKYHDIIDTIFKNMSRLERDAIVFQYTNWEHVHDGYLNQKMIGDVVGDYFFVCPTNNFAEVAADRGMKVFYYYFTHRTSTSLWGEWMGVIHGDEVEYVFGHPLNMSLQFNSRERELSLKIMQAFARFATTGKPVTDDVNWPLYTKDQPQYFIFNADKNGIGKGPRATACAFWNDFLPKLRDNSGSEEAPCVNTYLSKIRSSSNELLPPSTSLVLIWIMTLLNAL
Sequence of Ace-orthologous acetylcholinesterase (Nephotettix cincticeps) (Q9NJH6 20-677 limits assumed): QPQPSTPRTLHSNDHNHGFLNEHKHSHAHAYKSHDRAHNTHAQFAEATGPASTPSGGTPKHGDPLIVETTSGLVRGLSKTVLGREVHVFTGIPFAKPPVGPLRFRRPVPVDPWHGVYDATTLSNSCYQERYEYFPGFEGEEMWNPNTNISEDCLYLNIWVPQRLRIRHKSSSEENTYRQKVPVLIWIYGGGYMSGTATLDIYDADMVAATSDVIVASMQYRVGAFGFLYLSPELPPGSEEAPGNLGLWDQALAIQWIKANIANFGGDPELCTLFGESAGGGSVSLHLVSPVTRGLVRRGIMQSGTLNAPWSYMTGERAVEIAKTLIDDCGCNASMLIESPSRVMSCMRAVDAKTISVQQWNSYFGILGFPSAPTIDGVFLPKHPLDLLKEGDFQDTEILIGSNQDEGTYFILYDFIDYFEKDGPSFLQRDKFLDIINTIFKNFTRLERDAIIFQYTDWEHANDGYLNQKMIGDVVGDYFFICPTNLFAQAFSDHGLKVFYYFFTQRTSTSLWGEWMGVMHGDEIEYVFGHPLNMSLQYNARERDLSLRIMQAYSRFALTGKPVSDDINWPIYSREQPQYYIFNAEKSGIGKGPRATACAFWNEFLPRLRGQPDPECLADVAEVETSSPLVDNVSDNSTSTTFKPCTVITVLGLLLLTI

Compound | LC80 (Nephotettix cincticeps) [ppm] | LC80 (Nilaparvata lugens) [ppm] | LC80 (Peregrinus maidis) [ppm] | also measured
C[C@H]1[C@H]2N/C(=N/C#N)N[C@]1(C)Oc1ccccc12 (relative stereo) | <1 | <100 | >250 | –
CC12CC(N/C(=N/C#N)N1)c1ccccc1O2 (centres undefined) | >100 | <10 | >250 | inhibition [1]: Active; inhibition [2]: 50%; inhibition [3]: inactive
CC12CC(c3ccccc3O1)N(C(=O)C(F)(F)F)/C(=N/C#N)N2 (centres undefined) | >100 | >100 | <250 | –
CC12CC(c3ccccc3O1)N(Cc1ccccn1)/C(=N/C#N)N2 (centres undefined) | >100 | <100 | <50 | –
CC12CC(N/C(=N/C#N)N1)c1cc(Cl)ccc1O2 (centres undefined) | >100 | >100 | >250 | –
CC(C)C(=O)N1/C(=N/C#N)NC2(C)CC1c1ccccc1O2 (centres undefined) | >100 | <10 | >250 | –
COc1cccc2c1C1CC(C)(N/C(=N\C#N)N1)O2 (centres undefined) | >100 | >100 | <50 | –
CC12CC(c3ccccc3O1)N(Cc1ccccc1)/C(=N/C#N)N2 (centres undefined) | <100 | >100 | >250 | –
C[C@@H]1[C@H]2N/C(=N/C#N)N[C@]1(C)Cc1ccccc12 (relative stereo) | – | <1 | <10 | –
COC(=O)N1/C(=N/C#N)NC2(C)CC1c1ccccc1O2 (centres undefined) | <10 | <10 | >250 | –
CC12CC(N/C(=N/C#N)N1)c1cc(Cl)cc(Cl)c1O2 (centres undefined) | >100 | >100 | >250 | –
CCC1C2N/C(=N\C#N)NC1c1ccccc1O2 (mixture of isomers) | – | >100 | <250 | –
CN1/C(=N/C#N)N(C)C2(C)CC1c1ccccc1O2 (centres undefined) | >100 | <10 | >250 | –
CCC12N/C(=N\C#N)NC(c3ccccc3O1)C2C (mixture of isomers) | >100 | >100 | >250 | –
Cc1cccc2c1OC1(C)CC2N/C(=N/C#N)N1 (centres undefined) | >100 | >100 | >250 | –
CC12CC(c3ccccc3O1)N(S(C)(=O)=O)/C(=N/C#N)N2 (centres undefined) | >100 | >100 | <50 | –
COc1ccc2c(c1OC)OC1(C)CC2N/C(=N/C#N)N1 (centres undefined) | >100 | >100 | <250 | –
CC1C2N/C(=N\C#N)NC1c1ccccc1O2 (mixture of isomers) | >100 | <100 | >250 | –
CC12CC(N/C(=N/C#N)N1)c1cc(OC(F)(F)F)ccc1O2 (centres undefined) | >100 | >100 | >250 | –
CC(=O)N1/C(=N/C#N)NC2(C)CC1c1ccc(F)cc1O2 (centres undefined) | >100 | >100 | >250 | –
C[C@H]1[C@H]2N/C(=N/C#N)N[C@]1(C)Cc1ccccc12 (relative stereo) | <1 | – | <2.5 | –
CC(=O)N1/C(=N/C#N)NC2(C)CC1c1ccccc1O2 (centres undefined) | <10 | <10 | <250 | –
COC(=O)CN1/C(=N/C#N)NC2(C)CC1c1ccccc1O2 (centres undefined) | <100 | <100 | <50 | –
CN1/C(=N/C#N)NC2(C)CC1c1ccc(F)cc1O2 (centres undefined) | – | – | <10 | –
N#C/N=C1/NC2CC(c3ccccc3)(N1)Oc1ccccc12 (centres undefined) | <10 | >100 | <50 | –
CCCC(=O)N1/C(=N/C#N)NC2(C)CC1c1ccccc1O2 (centres undefined) | <100 | <10 | >250 | –
Cc1ccc2c(c1)C1CC(C)(N/C(=N\C#N)N1)O2 (centres undefined) | <100 | >100 | >250 | –

Compound | LC80 (Nephotettix cincticeps) [ppm] | LC80 (Nilaparvata lugens) [ppm] | LC80 (Peregrinus maidis) [ppm] | also measured
CC12CC(N/C(=N/C#N)N1)c1c(Cl)cc(Cl)cc1O2 (centres undefined) | <10 | >100 | <250 | –
CC12CC(c3ccccc3O1)N(C[Si](C)(C)C)/C(=N/C#N)N2 (centres undefined) | >100 | <100 | >250 | –
CC12CC(N/C(=N/C#N)N1)c1cc([N+](=O)[O-])ccc1O2 (centres undefined) | <10 | >100 | <250 | –
N#C/N=C1\NC2Cc3ccccc3C(C2)N1 (centres undefined) | <10 | <100 | <2.5 | –
C[C@@H]1[C@H]2N/C(=N/C#N)N[C@]1(C)Oc1ccccc12 (relative stereo) | >100 | <1 | <50 | –
CC12CC(N/C(=N/C#N)N1)c1cc(Br)cc(Br)c1O2 (centres undefined) | >100 | >100 | <10 | –
CC(=O)N1/C(=N/C#N)NC2Cc3ccccc3C1C2 (centres undefined) | <10 | – | >250 | –
CC12CC(N/C(=N/C#N)N1)c1ccc(Cl)cc1O2 (centres undefined) | >100 | <100 | <50 | –
C#CCN1/C(=N/C#N)NC2(C)CC1c1ccccc1O2 (centres undefined) | <10 | <10 | >250 | –
CN1/C(=N/C#N)NC2(C)CC1c1ccccc1O2 (centres undefined) | <100 | <10 | >250 | –
COC(=O)N1/C(=N/C#N)NC2(C)CC1c1ccc(F)cc1O2 (centres undefined) | <10 | – | <250 | –
C[C@@H]1[C@H]2Cc3ccccc3[C@@H]1N/C(=N/C#N)N2 (relative stereo) | <0.1 | <100 | <250 | –
CC12CC(N/C(=N/C#N)N1)c1cc(N)ccc1O2 (centres undefined) | <10 | >100 | >250 | –
CCC1C2N/C(=N/C#N)NC1(C)Oc1ccccc12 (centres undefined) | <10 | >100 | >250 | –
CC(=O)N1/C(=N\C#N)NC2CC1Cc1ccccc12 (centres undefined) | – | >100 | <10 | –
CCC12CC(N/C(=N/C#N)N1)c1ccccc1O2 (centres undefined) | >100 | <10 | >250 | –
CC12CC(N/C(=N/C#N)N1)c1cccc(F)c1O2 (centres undefined) | >100 | >100 | >250 | –
CCN1/C(=N/C#N)NC2(C)CC1c1ccccc1O2 (centres undefined) | >100 | <10 | >250 | –
CC12CC(N/C(=N/C#N)N1)c1cc(C(C)(C)C)cc(C(C)(C)C)c1O2 (centres undefined) | >100 | >100 | >250 | –
CCC(=O)N1/C(=N/C#N)NC2(C)CC1c1ccccc1O2 (centres undefined) | <100 | <10 | <250 | –
N#C/N=C1\NC2CC(N1)c1ccccc1O2 (centres undefined) | >100 | <100 | <50 | –
CC12CC(N/C(=N/C#N)N1)c1ccc(F)cc1O2 (centres undefined) | >100 | <10 | <250 | –
CC1c2ccccc2C2CC1N/C(=N\C#N)N2 (centres undefined) | <10 | – | <2.5 | –
C[C@H]1[C@H]2Cc3ccccc3[C@@H]1N/C(=N/C#N)N2 (relative stereo) | – | <10 | <250 | –
CCOP(=O)(OCC)Oc1ccc([N+](=O)[O-])cc1 [PARAOXON] | >100 | <10 | – | inhibition [4]: 50%; inhibition [5]: 100%; Activity [6]: < 20%
C=CCN1/C(=N/C#N)NC2(C)CC1c1ccccc1O2 (centres undefined) | >100 | <100 | >250 | –
